Reference: patent US9302993B2, “8-hydroxy quinoline derivatives” (PRANA BIOTECHNOLOGY LIMITED, priority 2002, dated 2016)
pIC50: −log10 of the molar value. Values joined by “and” are separate entries in the source; they are usually repeats but may differ in a detail not shown here. Identical values can stand only once. Like-named read-outs stand apart in the source and are kept apart here.

Key:
[1] = test system: Aβ in extract of tissue from post mortem human AD brain; test: Human brain amyloid solubilisation assay (Assay 9, BAS); assay type: biochemical
Experimental: Assay 9. Human Brain Amyloid Solubilisation Assay
This assay was performed in order to assess the ability of a test compound to mobilise Aβ from the insoluble to the soluble phase of an extract of tissue from post mortem human AD brain.
Up to 0.5 g of plaque-bearing cortex without meninges was homogenized using a DIAX 900 homogenizer (Heudolph and Co, Kelheim, Germany) or other suitable device for three 30-second periods at full speed in 2 ml of ice-cold phosphate-buffered saline, pH 7.4. To obtain the phosphate-buffered saline-extractable fraction, the homogenate was centrifuged at 100,000×g for 30 min and the supernatant removed. Alternatively, the tissue was freeze dried then pulverised to form a powder which was then weighed out into aliquots for extraction as above. Supernatant, either freeze-dried and resuspended or in unconcentrated form, was dissolved in 200 μl of Tris-Tricine sodium dodecyl sulfate (SDS) sample buffer pH 8.3 containing 8% SDS, 10% 2-mercaptoethanol. Aliquots (10 μl) were then boiled for 10 minutes before SDS-polyacrylamide gel electrophoresis. The insoluble fraction of the cortical samples was obtained by resuspending the initial pelleted sample in 1 ml of phosphate-buffered saline. A 50-μl aliquot of this suspension was then boiled in […] of sample buffer as above.
Tris-Tricine polyacrylamide gel electrophoresis was performed by loading appropriately diluted samples on to 10% to 20% gradient gels (Novex, San Diego, Calif.) followed by transfer on to 0.2-μm nitrocellulose membrane (Bio-Rad, Hercules, Calif.). Aβ was detected by using monoclonal antibody W02, which detects residues 5 through 8, […] (or another suitable antibody) in conjunction with horseradish peroxidase-conjugated rabbit anti-mouse IgG (Dako, Denmark), and visualized by using enhanced chemiluminescence (eg ECL; Amersham Life Science, Buckinghamshire, UK). Each gel included three lanes containing 0.5, 1, and 2 ng of synthetic Aβ40 (Keck Laboratory, Yale University, New Haven, Conn.) as reference standards.
Blot films were scanned by using a suitable imaging system such as the UVP gel documentation system, and densitometry performed using suitable software, eg UVP Labworks. The dynamic range of the film/scanner was determined by using a step tablet (No. 911ST600, Kodak, Rochester N.Y.), a calibrated film exposed by the manufacturer to provided steps of known increasing intensity. The quantifiable range of signal intensity for densitometric analysis of the mono- and dimeric Aβ bands was based on the comparison with a curve obtained by scanning and densitometry of the step tablet.
All samples were analysed at least twice, and gel loadings and dilutions were adjusted to fit within the quantifiable region of the standard curve. […] The insoluble Aβ being comprised of the pelletable fraction derived from the insoluble amyloid plaque from the above cortical samples and the soluble fraction comprising monomeric and/or oligomeric soluble Aβ.

[2] = test system: Neuronal cortical cells; test: Assay for test compound cytoxicity, MTS (Assay 3(d)); assay type: cell-based, mouse; settings: BL6J×129sv, mouse, 4 days
Experimental: (§1) Media was then replaced with Neurobasal media (Invitrogen Life Technologies) and B27 supplements (Invitrogen Life Technologies). Cultures were maintained at 37° C. in 5% CO2. Prior to experimentation, the culture medium was replaced with Neurobasal media and B27 minus antioxidants (Invitrogen Life Technologies).
Cell viability is determined using the MTS assay. Culture medium is […] replaced with fresh neurobasal medium plus B27 supplements minus antioxidants. 1/10th volume MTS solution (Cell Titre 96 Aqueous One, Promega Corporation) and incubated at 37° C., 2 hrs. 200 microliter aliquots are measured with a spectrophotometer at 560 nm.
(d) Assay for Test Compound Cytoxicity
Neuronal cortical cells were cultured for five days as per Assay 2 in NB media and B27 supplement.
On day six the test compounds were added to the neuronal cell cultures in NB media and B27 supplement minus antioxidants.
Test compounds were dissolved in 100% DMSO to a concentration of 2.5 mM (10 mM if excess compound was weighed out per vial—then diluted to 2.5 mM). […] Test compounds were not added directly to cells, instead they were added to a 48 well ‘Drug Plate’ as comprised below:
(§2) The Drug Plate was incubated at 37° C. for 15 mins. 200 ul of each well was added in triplicate to the corresponding cell plate. The cell plate was incubated at 37 C, for 4 days.
On completion of the assay, 1/10 volume MTS was added per well of plate (ie 25 ul/250 ul). The plates were incubated at 37 C for 2 hrs, and then absorbance was read at 560 nm.

[3] = target: T1, hydrogen peroxide generation by Aβ in the presence of copper (Homo sapiens, UniProt P05067); test: Fluorometric H2O2 assay (Assay 1); assay type: biochemical; settings: Aβ 1-42 with Cu-Gly, DCF/HRP, 37 C 60 min; several values in one cell = repeat determinations; read-out: Peroxide IC50
T1 construct: The reaction solutions contained Aβ 1-42 at concentrations in the range of 50 nM to 1 μM
T1 sequence (P05067 672-713 limits assumed): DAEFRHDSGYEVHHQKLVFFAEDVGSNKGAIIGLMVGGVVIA
Experimental: Assay 1. Fluorometric H2O2 Assay
A fluorometric assay was used to test the ability of a test compound to inhibit hydrogen peroxide generation by Aβ in the presence of copper based on dichlorofluoroscein diacetate (DCF; Molecular Probes, Eugene Oreg.). The DCF solution (5 mM) in 100% dimethyl sulphoxide (previously purged with argon for 2 hr at 20° C.) was deacetylated in the presence of 0.25M NaOH for 30 min and neutralised at pH 7.4 to a final concentration of 1 mM. Horseradish peroxidase (HRP) stock solution was prepared to 1 μM at pH 7.4. The reactions were carried out in PBS, pH 7.4 in a 96 well plate (total volume=250 μl/well). The reaction solutions contained Aβ 1-42 at concentrations in the range of 50 nM to 1 μM, copper-glycine chelate (Cu-Gly), was prepared by adding CuCl2 to glycine in the ratio of 1:6 and added to the Aβ in the proportion 2Cu-Gly: 1Aβ), reducing agents including dopamine (5 μM) or ascorbic acid, deacetylated DCF 100 μM, and HRP, 0.1 μM. […] The reaction mixture was incubated at 37 C for 60 min. […] H2O2 concentration may be established by comparing fluorescence with the H2O2 standards. Inhibition of AB H2O2 production was assayed by including a given concentration of test compound(s) in the test wells.

[4] = test system: Neuronal cortical cells treated with Aβ1-42; test: Assay for Aβ neurotoxicity and Aβ neuroprotection (Assay 3(c)); assay type: cell-based, mouse; settings: 20 uM Aβ1-42, 4 days, MTS
Experimental: as §1
(c) Assay for Aβ Neurotoxicity and Aβ Neuroprotection
Neuronal cortical cells were cultured for five days as per Assay 2. On day six the neurobasal (NB) media (Invitrogen Life Technologies) and B27 supplement (Invitrogen Life Technologies) were replaced with NB media and B27 supplement (no antioxidants). On day six, test compounds were individually added to the neuronal cell cultures:
Aβ was initially dissolved in 20 mM NaOH to a concentration of 1 mM and sonicated for 5 minutes. The peptide was then diluted in H2O and 10×PBS to a final concentration of 200 uM Aβ in 1×PBS. The peptide was again sonicated for 5 minutes and then spun at 14000 rpm for 5 min and transferred to a fresh tube.
The test compounds were dissolved in 100% DMSO to a concentration of 2.5 mM (10 mM if excess compound was weighed out per vial—then diluted to 2.5 mM). […] Test compounds were not added directly to cells, instead they were added to a 48 well ‘Drug Plate’ as comprised below:
as §2
On the 4th day after treating the cells the assay is completed by adding MTS to the cells.

[5] = solubilising plaques relative to PBS

SMILES | BAS Score [1, 5] | Viable 10 uM [2] | pIC50 [3] | BAS Score [1] | Test Compound Cytoxicity 1 uM [2] | Test Compound Cytoxicity 10 uM [2] | % inhibition Abeta toxicity [4] [%]
O=S(=O)(O)c1cc(I)c(O)c2ncccc12 [compound 43] | − | 91.02 | 6.22 |  |  |  | 
Nc1ccc(O)c2ncccc12 [compound 44] |  | 71.05 |  | + |  |  | 
Oc1c(I)cc(I)c2cccnc12 [compound 46] | − | 91.97 | 6.00 |  |  |  | 
Oc1c(Br)cc(Br)c2cccnc12 [compound 47] |  | 93.59 | 6.05 |  | 88 | 86 | 13
Oc1ccc(Cl)c2cccnc12 [compound 48] | − | 85 | 6.10 |  |  |  | 
Oc1c(-c2ccccc2)cc(-c2ccccc2)c2cccnc12 [compound 809] | + | 26.31 | > 5.40 and 5.74 |  |  |  | 
CN(C)c1ccc(-c2cc(Cl)c3cccnc3c2O)cc1 [compound 851] | − |  | > 6.15 |  |  |  | 
Cc1ccccc1-c1cc(-c2ccccc2C)c2cccnc2c1O [compound 852] | + | 33.52 |  |  |  |  | 
Cc1cccc(-c2cc(Cl)c3cccnc3c2O)c1 [compound 859] | + |  |  |  |  |  | 
Oc1c(I)cc(-c2ccccc2C(F)(F)F)c2cccnc12 [compound 860] | + |  |  |  |  |  | 
Cc1ccccc1-c1cc(I)c(O)c2ncccc12 [compound 861] | + | 37.83 | 6.04 |  |  |  | 
COc1ccccc1-c1cc(-c2ccccc2OC)c2cccnc2c1O [compound 862] | + |  |  |  |  |  | 
COc1ccccc1-c1cc(I)c(O)c2ncccc12 [compound 863] | + | 34.97 |  |  |  |  | 
O=C(NCc1ccccn1)c1ccc2cccc(O)c2n1 [compound 949] | + | 84.82 | 6.05 |  |  |  | 
O=C(Nc1ccccc1O)c1ccc2cccc(O)c2n1 [compound 951] | − | 91.86 | 5.84 |  |  |  | 
O=C(NCCc1cnc[nH]1)c1cc(O)c2cccc(O)c2n1 [compound 954] | − | 104.9 | 6.74 |  |  |  | 
O=C(NCc1ccccn1)c1cc(O)c2cccc(O)c2n1 [compound 955] | − | 100 | 6.59 and 6.74 |  |  |  | 

SMILES | BAS Score [1, 5] | Viable 10 uM [2] | pIC50 [3] | BAS Score [1] | Test Compound Cytoxicity 1 uM [2] | Test Compound Cytoxicity 10 uM [2] | % inhibition Abeta toxicity [4] [%]
NCCNC(=O)c1ccc2cccc(O)c2n1 [compound 957] | + | 95.86 |  |  |  |  | 
N=C(N)NCc1ccc2cccc(O)c2n1 [compound 966] | + | 88.61 | 5.37 |  |  |  | 
Oc1c(-c2ccccc2C(F)(F)F)cc(-c2ccccc2C(F)(F)F)c2cccnc12 [compound 974] | + |  | 6.22 |  |  |  | 
Oc1c(-c2ccccc2F)cc(-c2ccccc2F)c2cccnc12 [compound 975] | + |  | 5.49 |  |  |  | 
CC(=O)c1ccc2cccc(O)c2n1 [compound 976] | − |  | 5.43 |  |  |  | 
O=C(CNC(=O)c1cc(O)c2cccc(O)c2n1)NCc1ccccn1 [compound 988] | − | 93.27 |  |  |  |  | 
Oc1cccc2ccc(CNCCc3c[nH]cn3)nc12 [compound 989] | − | 43.24 | 6.38 |  |  |  | 
Oc1cccc2ccc(CNCc3ccccn3)nc12 [compound 991] | + |  |  |  |  |  | 
Oc1cccc2ccc(CN(CCc3c[nH]cn3)Cc3nccs3)nc12 [compound 1002] |  |  | 6.41 |  | 82 | 34 | 17
Oc1cccc2ccc(CN(Cc3ccccn3)Cc3nccs3)nc12 [compound 1003] |  |  | 6.26 |  | 97 | 38 | 17
CSc1ccccc1-c1ccc2cccc(O)c2n1 [compound 1005] |  |  | 5.62 |  | 100 | 95 | 1
Cc1cccc(-c2ccc3cccc(O)c3n2)n1 [compound 1007] |  |  | 6.24 |  | 90 | 43 | 9
Oc1cccc2ccc(CN(CCc3c[nH]cn3)Cc3c[nH]cn3)nc12 [compound 1008] |  |  | 6.59 |  | 86 | 28 | 9
Oc1cccc2ccc(CN(CCc3c[nH]cn3)Cc3ccccn3)nc12 [compound 1009] |  |  | 6.49 |  | 94 | 32 | 16
Oc1cccc2ccc(CN(Cc3ccccn3)Cc3ccccn3)nc12 [compound 1010] |  |  | 6.48 |  | 88 | 27 | 12
Oc1cccc2ccc(CN(Cc3ccccn3)Cc3c[nH]cn3)nc12 [compound 1011] |  |  | 6.49 |  | 89 | 31 | 21
O=C(c1ccc2cccc(O)c2n1)N(Cc1ccccn1)Cc1ccccn1 [compound 1020] |  |  | 5.89 |  | 85 | 83 | 4
